This experiment addresses HIV protease (Human immunodeficiency virus type 1 group M subtype B, UniProt P04585). Put plainly: biochemical.
Text: Enzymatic Assay for Determining the Inhibition Constant (Ki) of Synthetic Compounds Targeting the HIV Protease
This is a fluorometric assay based on the cleavage by protease of a substrate carrying a donor group (EDANS) and an acceptor group (DABCYL) on each side of the cleavage site, interacting together through fluorescence resonance energy transfer (FRET) as described by Matayoshi et al. (Science 247:954-954, 1990).
After calculation of Vo and Vi, the inhibition constant (Ki) of the compound is determined using the equation of Henderson: [formula]
where Vo=the enzyme's initial velocity
Vi=the enzyme velocity in the presence of the inhibitory compound,
[I]=inhibitor concentration, [S]=substrate concentration,
Km=Michaelis-Menten constant and Kiapp=apparent Ki
Graphs are traced and the Ki determined using GraphPad Prism software v.
For orientation: Ki means the equilibrium dissociation constant of an inhibitor or competing ligand from its target. In turn, `COc1ccc(CC(=O)N[C@@H](Cc2cccc3ccccc23)C(=O)NCCC[C@@H](CO)N(CC(C)C)S(=O)(=O)c2ccc(N)cc2)cc1` [Example 5, (2S,4S)-N-{4-[(4-Amino-benzenesulfonyl)-isobutyl-amino]-5-hydroxy-pentyl}-2-[2-(4-methoxy-phenyl)-acetylamino]-3-naphthalen-1-yl-propionamide] came in with an inhibitory constant (Ki) of 11 nM. To `COC(=O)N[C@@H](Cc1ccccc1-c1ccc(OC)cc1)C(=O)NCCC[C@@H](CO)N(CC(C)C)S(=O)(=O)c1ccc(N)cc1` [Example 6, (1S,4S)-[1-{4-[(4-Amino-benzenesulfonyl)-isobutyl-amino]-5-hydroxy-pentylcarbamoyl}-2-(4′-methoxy-biphenyl-2-yl)-ethyl]-carbamic Acid Methyl Ester] belongs 13 nM.

In turn, `CC(C)CN([C@H](CO)CCCNC(=O)[C@H](Cc1cccc2ccccc12)NC(=O)OCC(F)(F)F)S(=O)(=O)c1ccc(N)cc1` [Example 7, (1S,4S)-(1-{4-[(4-Amino-benzenesulfonyl)-isobutyl-amino]-5-hydroxy-pentylcarbamoyl}-2-naphthalen-1-yl-ethyl)-carbamic Acid 2,2,2-Trifluoro-ethyl Ester] registered a Ki of 4 nM. Then `CC(C)CN([C@H](CO)CCCNC(=O)[C@@H](N)Cc1cccc2ccccc12)S(=O)(=O)c1ccc(N)cc1` [Example 8, (2S,4S)-2-Amino-N-{4-[(4-amino-benzenesulfonyl)-isobutyl-amino]-5-hydroxy-pentyl}-3-naphthalen-1-yl-propionamide], with 1.6 nM; and `CC(C)CN([C@H](CO)CCCNC(=O)[C@H](Cc1cccc2ccccc12)NC(=O)C1CCCCC1)S(=O)(=O)c1ccc(N)cc1` [Example 13, (1S,4S)-Cyclohexanecarboxylic Acid (1-{4-[(4-Amino-benzenesulfonyl)-isobutyl-amino]-5-hydroxy-pentylcarbamoyl}-2-naphthalen-1-yl-ethyl)-amide], with 2.3 nM; and `CC(C)CN([C@H](CO)CCCNC(=O)[C@@H](N)Cc1ccccc1-c1ccccc1)S(=O)(=O)c1ccc(N)cc1` [Example 14, (2S,4S)-2-Amino-N-{4-[(4-amino-benzenesulfonyl)-isobutyl-amino]-5-hydroxy-pentyl}-3-biphenyl-2-yl-propionamide], with 7.1 nM.

As for `COC(=O)CN[C@@H](Cc1cccc2ccccc12)C(=O)NCCC[C@@H](CO)N(CC(C)C)S(=O)(=O)c1ccc(N)cc1` [Example 15, (1S,4S)-(1-{4-[(4-Amino-benzenesulfonyl)-isobutyl-amino]-5-hydroxy-pentylcarbamoyl}-2-naphthalen-1-yl-ethylamino)-acetic Acid Methyl Ester], the Ki is 4.2 nM. Compared with the last molecule, the Ki is about 1.7-fold lower. To `CC(C)CN([C@H](CO)CCCNC(=O)[C@@H](NC(=O)OC(C)(C)C)C(c1ccccc1)c1ccccc1)S(=O)(=O)c1ccc(N)cc1` [Example 16, (1S,4S)-(1-{4-[(4-Amino-benzenesulfonyl)-isobutyl-amino]-5-hydroxy-pentylcarbamoyl}-2,2-diphenyl-ethyl)-carbamic Acid tert-Butyl Ester] belongs 9.3 nM; to `COCCOC(=O)N[C@@H](Cc1cccc2ccccc12)C(=O)NCCC[C@@H](CO)N(CC(C)C)S(=O)(=O)c1ccc(N)cc1` [Example 17, (1S,4S)-(1-{4-[(4-Amino-benzenesulfonyl)-isobutyl-amino]-5-hydroxy-pentylcarbamoyl}-2-naphthalen-1-yl-ethyl)-carbamic Acid 2-Methoxy-ethyl Ester], 3.7 nM.

`CCOC(=O)N[C@@H](Cc1cccc2ccccc12)C(=O)NCCC[C@@H](CO)N(CC(C)C)S(=O)(=O)c1ccc(N)cc1` [Example 18, (1S,4S)-(1-{4-[(4-Amino-benzenesulfonyl)-isobutyl-amino]-5-hydroxy-pentylcarbamoyl}-2-naphthalen-1-yl-ethyl)-carbamic Acid Ethyl Ester] displayed a Ki of 3.9 nM.

Molecule `COCC(=O)N[C@@H](Cc1cccc2ccccc12)C(=O)NCCC[C@@H](CO)N(CC(C)C)S(=O)(=O)c1ccc(N)cc1` [Example 19, (2S,4S)-N-{4-[(4-Amino-benzenesulfonyl)-isobutyl-amino]-5-hydroxy-pentyl}-2-(2-methoxy-acetylamino)-3-naphthalen-1-yl-propionamide] returned an inhibition constant (Ki) of 2.6 nM. To `CCCCN[C@@H](Cc1cccc2ccccc12)C(=O)NCCC[C@@H](CO)N(CC(C)C)S(=O)(=O)c1ccc(N)cc1` [Example 20, (2S,4S)-N-{4-[(4-Amino-benzenesulfonyl)-isobutyl-amino]-5-hydroxy-pentyl}-2-butylamino-3-naphthalen-1-yl-propionamide] belongs 4.4 nM; to `CC(=O)OCCN[C@@H](Cc1cccc2ccccc12)C(=O)NCCC[C@@H](CO)N(CC(C)C)S(=O)(=O)c1ccc(N)cc1` [Example 21, (1S,4S)-Acetic Acid 2-(1-{4-[(4-Amino-benzenesulfonyl)-isobutyl-amino]-5-hydroxy-pentylcarbamoyl}-2-naphthalen-1-yl-ethylamino)-ethyl Ester], 3.9 nM; to `CCCN[C@@H](Cc1cccc2ccccc12)C(=O)NCCC[C@@H](CO)N(CC(C)C)S(=O)(=O)c1ccc(N)cc1` [Example 22, (2S,4S)-N-{4-[(4-Amino-benzenesulfonyl)-isobutyl-amino]-5-hydroxy-pentyl}-3-naphthalen-1-yl-2-propylamino-propionamide], 2.5 nM.

`CC(C)CN([C@H](CO)CCCNC(=O)[C@H](Cc1cccc2ccccc12)NC(=O)C1CCCC1)S(=O)(=O)c1ccc(N)cc1` [Example 23, (1S,4S)-Cyclopentanecarboxylic Acid (1-{4-[(4-Amino-benzenesulfonyl)-isobutyl-amino]-5-hydroxy-pentylcarbamoyl}-2-naphthalen-1-yl-ethyl)-amide] returned a Ki of 2 nM. Then `CC(C)CN([C@H](CO)CCCNC(=O)[C@@H](N)C(c1ccccc1)c1ccccc1)S(=O)(=O)c1ccc(N)cc1` [Example 24, (2S,4S)-2-Amino-N-{4-[(4-amino-benzenesulfonyl)-isobutyl-amino]-5-hydroxy-pentyl}-3,3-diphenyl-propionamide], with 7.5 nM; and `CC(C)CN[C@@H](Cc1cccc2ccccc12)C(=O)NCCC[C@@H](CO)N(CC(C)C)S(=O)(=O)c1ccc(N)cc1` [Example 25, (2S,4S)-N-{4-[(4-Amino-benzenesulfonyl)-isobutyl-amino]-5-hydroxy-pentyl}-2-isobutylamino-3-naphthalen-1-yl-propionamide], with 3.7 nM. Molecule `CCN[C@@H](Cc1cccc2ccccc12)C(=O)NCCC[C@@H](CO)N(CC(C)C)S(=O)(=O)c1ccc(N)cc1` [Example 26, (2S,4S)-N-{4-[(4-Amino-benzenesulfonyl)-isobutyl-amino]-5-hydroxy-pentyl}-2-ethylamino-3-naphthalen-1-yl-propionamide] gave an inhibitory constant (Ki) of 3 nM. To `CC(C)CN([C@H](CO)CCCNC(=O)[C@H](Cc1cccc2ccccc12)NCC(=O)O)S(=O)(=O)c1ccc(N)cc1` [Example 27, (1S,4S)-(1-{4-[(4-Amino-benzenesulfonyl)-isobutyl-amino]-5-hydroxy-pentylcarbamoyl}-2-naphthalen-1-yl-ethylamino)-acetic Acid] belongs 2.5 nM. In turn, `COC(=O)N[C@@H](Cc1cccc2ccccc12)C(=O)NCCCC[C@@H](CO)N(CC(C)C)S(=O)(=O)c1ccc(N)cc1` [Example 28, (1S,5S)-(1-{5-[(4-Amino-benzenesulfonyl)-isobutyl-amino]-6-hydroxy-hexylcarbamoyl}-2-naphthalen-1-yl-ethyl)-carbamic Acid Methyl Ester] returned a Ki of 1.2 nM. In the case of `COC(=O)N[C@@H](Cc1ccc2ccccc2c1)C(=O)NCCCC[C@@H](CO)N(CC(C)C)S(=O)(=O)c1ccc(N)cc1` [Example 29, (1S,5S)-(1-{5-[(4-Amino-benzenesulfonyl)-isobutyl-amino]-6-hydroxy-hexylcarbamoyl}-2-naphthalen-2-yl-ethyl)-carbamic Acid Methyl Ester], the Ki worked out at 1.2 nM. To `CC(C)CN([C@H](CO)CCCCNC(=O)[C@H](Cc1ccc2ccccc2c1)NC(=O)C1CCCCC1)S(=O)(=O)c1ccc(N)cc1` [Example 42, (1S,5S)-Cyclohexanecarboxylic Acid (1-{5-[(4-Amino-benzenesulfonyl)-isobutyl-amino]-6-hydroxy-hexylcarbamoyl}-2-naphthalen-2-yl-ethyl)-amide] belongs 1.2 nM; to `CC(C)CN([C@H](CO)CCCCNC(=O)[C@@H](N)Cc1ccc2ccccc2c1)S(=O)(=O)c1ccc(N)cc1` [Example 49, (2S,5S)-2-Amino-N-{5-[(4-amino-benzenesulfonyl)-isobutyl-amino]-6-hydroxy-hexyl}-3-naphthalen-2-yl-propionamide], 1.3 nM; to `COC(=O)N[C@@H](Cc1ccccc1-c1cccc(F)c1)C(=O)NCCCC[C@@H](CO)N(CC(C)C)S(=O)(=O)c1ccc(N)c(Cl)c1` [Example 57, (1S,5S)-[1-{5-[(4-Amino-3-chloro-benzenesulfonyl)-isobutyl-amino]-6-hydroxy-hexylcarbamoyl}-2-(3′-fluoro-biphenyl-2-yl)-ethyl]-carbamic Acid Methyl Ester], 1.7 nM. Then `CC(C)CN([C@H](CO)CCCCNC(=O)[C@H](Cc1ccc(-c2ccccc2)cc1)NC(=O)OC(C)(C)C)S(=O)(=O)c1ccc(N)cc1` [Example 59, (1S,5S)-(1-{5-[(4-Amino-benzenesulfonyl)-isobutyl-amino]-6-hydroxy-hexylcarbamoyl}-2-biphenyl-4-yl-ethyl)-carbamic Acid tert-Butyl Ester], with 6 nM; and `CC(C)CN([C@H](CO)CCCCNC(=O)[C@H](Cc1ccc2ccccc2c1)NC(=O)C1CCCC1)S(=O)(=O)c1ccc(N)cc1` [Example 60, (1S,5S)-Cyclopentanecarboxylic Acid (1-{5-[(4-Amino-benzenesulfonyl)-isobutyl-amino]-6-hydroxy-hexylcarbamoyl}-2-naphthalen-2-yl-ethyl)-amide], with 1.9 nM; and `CC(C)CN[C@@H](Cc1ccc2ccccc2c1)C(=O)NCCCC[C@@H](CO)N(CC(C)C)S(=O)(=O)c1ccc(N)cc1` [Example 63, (2S,5S)-N-{5-[(4-Amino-benzenesulfonyl)-isobutyl-amino]-6-hydroxy-hexyl}-2-isobutylamino-3-naphthalen-2-yl-propionamide], with 3.9 nM.

These data come from patent US6632816B1, “Aromatic derivatives as HIV aspartyl protease inhibitors” (Pharmacor Inc., priority 2002, dated 2003).
